Laboratory results: patent US4921861A, “Pharmaceutical compositions” (BASF Aktiengesellschaft, priority 1987, dated 1990)
Entries after “also recorded” stand apart in the source; their conditions may differ. Read-outs that look alike come from different tables or passages of the source.

What was measured:
rats [1] = assay: conflict test: anxiolytic (punished) and sedative (unpunished) effect on water consumption; type: in vivo, Male CFY rats; settings: for water uptake, without electric current / water uptake, with electric current: 0.5 hour; for minimal effective dose: Rattus norvegicus, sc, s.c.
Protocol: (§1) The pharmacological activity of 3-amino-4-ethylthio-quinoline is substantiated by the following tests. As test compound 3-amino-4-ethylthio-quinoline-hydrochloride (referred to further as "Compound A") is used.
Anxiolytic and sedative effects are studied according to the following conflict test. […] On the other hand, sedative effect can be observed but in a dose of 25 mg/kg. Thus the ratio of the anxiolytic and sedative doses amounts to 25,000: 2.5=10,000. The same value of chlordiazepoxide is 10:0.1=100. It appears that in the case of Compound A the dissociation between the sedative and anxiolytic doses is extremely high.
The essential strategy for measuring the anti-anxiety effect of a drug is to check its activity in a conflict situation. We elicit a rewarded response, then suppress that response by punishing it when it occurs and the anti-anxiety effect is measured by the drug-induced increase in punished responding, whereas the sedative effect is measured by the drug-induced decrease of unpunished responding.
A rat, deprived of food for 96 hours and supplied with water ad libitum, drinks about 7 ml water during the 4th day of food deprivation, but needs 35 ml water daily when supplied with dry food [for review see Knoll, J. J., Neural Transm. 59, 163-194 (1984)]. This means that when we circuit the drinking tube and the grid floor of the cage and the rat is regularly shocked by trying to drink, the very hungry animal, which cannot eat without drinking, is maximally forced to overcome the hindrance. This is a sensitive test to check the anti-anxiety effect of a compound.
Male CFY rats, weighing 230-250 g, fed with standard food pellets and supplied with tap water ad libitum, were kept under controlled standard environmental conditions (room temperature between 22°-24° C.) in groups of ten for two weeks until used in the experiment. The rats kept in single cages during starvation were deprived of food for 96 hours and supplied with tap water ad libitum before the experiment.
Another aspect of the selection of the animals for the experiment was their visible physical fitness and normal activity after starvation. Less than 10 percent of the rats were excluded from the experiment because of insufficient physical fitness.
A clear Plexiglass box (39×27×12 cm) with a stainless-steel grid floor supplied with a tray for the food pellets and with a drinking tube was used for the experiment. The grid floor, the drinking tube and an electric stimulator (Grass S48) were connected and electric shocks in this circuit were delivered for 10 s duration with 20 s intervals. The parameters of the current (100V; 25 ohm; 7.5 ms; 5 Hz) were empirically selected using those electric shocks which inhibited the water consumption of the very hungry rats to one third of the control (unpunished) level.
The rats spend one hour in the apparatus after 96 hours of food deprivation. The very hungry rats eat 5-6 g of food pellets during the first hour of the feeding period after the long starvation. […] In the punished situation the consumption was reduced to less than 3 ml.
The drugs were administered parenterally in doses of 0.5 ml/100 g body weight. We refrained from the oral administration of the compounds because of the long term food deprivation.

[2] = system: spasms induced by tetracor; assay: spasmolytic effect on spasms induced by tetracor; type: in vivo
Description: as §1

inactine narcosis time = assay: narcosis potentiating effect, inactine narcosis; type: in vivo, rats
Description: as §1
(§2) The narcosis potentiating effect of Compound A (on rats) is very strong if inactine is used.

[3] = system: one-way conditioned avoidance; assay: one-way conditioned avoidance test (screening test I); type: in vivo; settings: 100 mg/kg p.o.
Description: as §1

rats [4] = assay: algolytic test; type: in vivo
Description: as §1
Compound A is ineffective in the algolytic test (on rats).

acute toxicity (LD50) = settings: rat, in vivo, rats
Description: as §1

spontaneous motility = assay: spontaneous motility; type: in vivo; settings: rats
Description: as §1

[5] = system: hexobarbital narcosis time; assay: narcosis potentiating effect, hexobarbital narcosis; type: in vivo, rats; settings: compared with inactine
Description: as §1, §2

metabolism = assay: influence on metabolism; type: in vivo; settings: rats, 100 mg/kg p.o.
Description: as §1

"hot-plate" test = type: in vivo
Description: as §1

[6] = system: two-way conditioned avoidance reflex; assay: shuttle box (two-way conditioned avoidance reflex); type: in vivo; settings: rats, 100 mg/kg p.o.
Description: as §1

calypsol narcosis time = assay: narcosis time of non-barbiturate phenyclidine derivative (calypsol); type: in vivo, rats
benzodiazepine receptors = assay: displacement of diazepame from benzodiazepine receptors; type: binding
[7] = system: unconditioned avoidance reflex; assay: modified jumping test; type: in vivo; settings: 50 and 100 mg p.o.
Description: as §1

## CNC1=Nc2ccc(Cl)cc2C(c2ccccc2)=[N+]([O-])C1 [chlordiazepoxide, reference compound]
Rats [1]
  ratio of the anxiolytic and sedative doses: 100

## CCSc1c(N)cnc2ccccc12 [3-amino-4-ethylthio-quinoline]
[2]; general statement
  anticonvulsive effect: devoid of sedative and anticonvulsive effects
Rats [1]; general statement
  anxiolytic effect: particularly potent anxiolytic; also recorded: highly selective anxiolytic effect
  sedative effect: devoid of sedative
Inactine narcosis time; general statement
  narcosis potentiating effect: particularly potent anxiolytic and narcosis potentiating effect

## CCSc1c(N)cnc2ccccc12.Cl [Compound A, 3-amino-4-ethylthio-quinoline-hydrochloride]
[3]
  inhibiting effect in one-way conditioned avoidance test: very weak inhibiting effect
Rats [4]
  activity in the algolytic test: ineffective
Acute toxicity (LD50); sc
  LD50: 320 mg/kg
Acute toxicity (LD50); oral
  LD50: 420 mg/kg
[2]; 25 and 100 mg/kg p.o.
  spasmolytic effect on spasms induced by tetracor: no spasmolytic effect
Spontaneous motility; 25 mg/kg
  inhibition of spontaneous motility: inactive
Spontaneous motility; 50 and 100 mg/kg p.o.
  inhibition of spontaneous motility: moderately in a dose-independant manner
[5]
  prolongation of hexobarbital narcosis time: to a much weaker extent
metabolism
  influence on metabolism: does not influence metabolism
"hot-plate" test; oral
  ED50: 49 mg/kg
"hot-plate" test; sc
  ED50: 40 mg/kg
[6]
  inhibition of learning ability: inhibits learning ability on rats significantly
Rats [1]; 0.25 mg/kg s.c., 10 animals
  water uptake, without electric current: 6.1 ± 0.46 mL
Rats [1]; 0.25 mg/kg s.c., 10 animals, p < 0.05
  water uptake, with electric current: 3.3 ± 0.45 mL
Rats [1]; 5 mg/kg s.c., 10 animals
  water uptake, without electric current: 7.2 ± 0.37 mL
Rats [1]; 10 mg/kg s.c., 10 animals
  water uptake, without electric current: 6.9 ± 0.43 mL
Rats [1]; 25 mg/kg s.c., 7 animals, p < 0.01
  water uptake, without electric current: 3.4 ± 0.60 mL
Rats [1]; 2.5 γ/kg s.c., 10 animals, p < 0.05
  water uptake, with electric current: 3.4 ± 0.43 mL
Rats [1]; 5 γ/kg s.c., 10 animals, p < 0.001
  water uptake, with electric current: 4.1 ± 0.66 mL
Rats [1]; 10 γ/kg s.c., 10 animals
  water uptake, with electric current: 2.7 ± 0.33 mL
Rats [1]; 25 γ/kg s.c., 10 animals
  water uptake, with electric current: 2.8 ± 0.38 mL
Rats [1]; with electric current, read-out: dose significantly increasing water consumption punished by trains of electric shock (anxiolytic dose)
  minimal effective dose: 0.0025 mg/kg
Rats [1]; without electric current, read-out: dose at which sedative effect can be observed
  minimal effective dose: 25 mg/kg
Rats [1]; general statement
  anxiolytic effect: extremely active anxiolytic agent
Rats [1]
  ratio of the anxiolytic and sedative doses: 10,000
Calypsol narcosis time
  effect on narcosis time of calypsol: does not lengthen the narcosis time
Inactine narcosis time; p.o., rats
  ED500 (dose which causes a five-fold prolongation of the inactine narcosis time): 3.4 mg/kg
Inactine narcosis time; rats, inactine
  narcosis potentiating effect: very strong
Inactine narcosis time; s.c., rats
  ED500 (dose which causes a five-fold prolongation of the inactine narcosis time): 3.5 mg/kg
Benzodiazepine receptors
  displacement of diazepame from the benzodiazepine receptors: displaces diazepame from the benzodiazepine receptors
[7]
  inhibition of the unconditioned avoidance reflex: does not inhibit
